Series [1] deals with urinary excretion of calcium, magnesium, phosphorus. The note with it: in the diet at 3 mg/day; cited from earlier work.
In series [2] the test system is testes. The note with it: 250 mg/kg for 16 days; cited from earlier work.
The test system of series [3] is Cf1 male mice. Kind of series: Writhing reflex, 0.6% acetic acid. The series is classed as in vivo. Conditions: Mus musculus, ip; Table IV; 8 mg/kg I.P.
Series [4] addresses Acid phosphatase. Description: Mouse hepatic lysosomal acid phosphatase activity. It counts as biochemical. Conditions: Table V; mouse hepatic, 60 min incubation. From the text: (§1) 1. Cf1 male mouse hepatic 10% homogenates in 0.25M sucrose+0.001MEDTA,pH 7.2.
(§2) Lysosomal Enzymes - free and total [triton X-100].
1. Acid phosphatase -beta glycerol-3-phosphate, pH 5.0, released IP 720 nm.
Acid phosphatase activity -

Series [5] relates to Trypsin. Description: Mouse macrophage trypsin (BAEE) activity. The note with it: Table VIII; mouse macrophages, 60 min incubation; read-out: Trypsin BAEE IC50. The series is classed as cell-based.
From the text: 1. Trypsin- N-benzoyl-L-arginine ethyl ester pH 8.0, hydrolytic product 253 nm.
Series [6] concerns the target T1, Cathepsin D (Mus musculus, UniProt P18242).
T1 construct: azocasein assay pH 5.0
Description: Mouse hepatic lysosomal cathepsin D activity. It counts as biochemical. The note with it: Table V; mouse hepatic, 60 min incubation; read-out: Cathepsin D IC50.
From the text: as §1, §2
2. Acid Cathepsin D -azocasein-pH 5.0, hydrolytic azo-peptide produce 366 nm.
Cathepsin azo casein activity -

The test system of series [7] is human osteosarcoma cells. Description: Cytotoxicity against growth of human osteosarcoma cells. The note with it: Table XX; human osteosarcoma (ATCC); read-out: Cytoxicity ED-50 Osteosarcoma. It counts as cell-based.
The subject of series [8] is Aryl sulphatase. Kind of series: Mouse macrophage aryl sulphatase activity. It counts as cell-based. Conditions: Table VII; mouse macrophage cultured cells, 60 min incubation; read-out: Aryl Sulphatase IC50.
Series [9] concerns Prostaglandin cyclooxygenase. Kind of series: Mouse macrophage prostaglandin cyclooxygenase activity. The note with it: Table VIII; mouse macrophages, 60 min incubation; read-out: Prostaglandin Cyclooxygenase IC50. The series is classed as cell-based. The text has this:
3. Mouse macrophages J774A.1 BALB/c
(§3) Prostaglandin synthetase purified beef seminal vesicle ^3 H arachidonic acid (86.2 Ci/mmol), tlc separation.

Series [10] deals with Elastase. Kind of series: Mouse macrophage elastase activity. It counts as cell-based. The note with it: Table VIII; mouse macrophages, 60 min incubation; read-out: Elastase IC50.
From the text: Elastase- N-succinyl-L-alanyl-L-alanine-p-nitroanilide, pH 8.0, p-nitro anilide 410 nm.
Series [11] deals with human osteoporosis fibroblastic cells. Description: Cytotoxicity against growth of human osteoporosis fibroblastic cells. The note with it: Fibroblast, Table XX, read-out: Cytoxicity ED-50 Osteoporosis Fibroblasts. The series is classed as cell-based.
Series [12] has as its target Aryl sulphatase. Kind of series: Mouse hepatic lysosomal aryl sulphatase activity. Conditions: Table V, 60 min incubation. It counts as biochemical.
From the text: as §1, §2
3. Aryl sulphatase- p-nitrocatechol sulfate, pH
5. 8 p-nitro-catechol product 510 nm.

Series [13] relates to Acid phosphatase. Kind of series: Mouse macrophage acid phosphatase activity. The series is classed as cell-based. The note with it: Table VII; mouse macrophage cultured cells, 60 min incubation; read-out: Acid Phosphatase IC50.
In series [14] the test system is Sprague Dawley Rats. Kind of series: Anti-inflammatory activity in Sprague Dawley rats. It counts as in vivo. The note with it: Table IV; 8 mg/kg I.P.
Series [15] deals with T2, Prostaglandin synthetase (Bos taurus, UniProt O62664).
T2 construct: Prostaglandin synthetase purified beef seminal vesicle; from tissue
T2 sequence (O62664 25-600): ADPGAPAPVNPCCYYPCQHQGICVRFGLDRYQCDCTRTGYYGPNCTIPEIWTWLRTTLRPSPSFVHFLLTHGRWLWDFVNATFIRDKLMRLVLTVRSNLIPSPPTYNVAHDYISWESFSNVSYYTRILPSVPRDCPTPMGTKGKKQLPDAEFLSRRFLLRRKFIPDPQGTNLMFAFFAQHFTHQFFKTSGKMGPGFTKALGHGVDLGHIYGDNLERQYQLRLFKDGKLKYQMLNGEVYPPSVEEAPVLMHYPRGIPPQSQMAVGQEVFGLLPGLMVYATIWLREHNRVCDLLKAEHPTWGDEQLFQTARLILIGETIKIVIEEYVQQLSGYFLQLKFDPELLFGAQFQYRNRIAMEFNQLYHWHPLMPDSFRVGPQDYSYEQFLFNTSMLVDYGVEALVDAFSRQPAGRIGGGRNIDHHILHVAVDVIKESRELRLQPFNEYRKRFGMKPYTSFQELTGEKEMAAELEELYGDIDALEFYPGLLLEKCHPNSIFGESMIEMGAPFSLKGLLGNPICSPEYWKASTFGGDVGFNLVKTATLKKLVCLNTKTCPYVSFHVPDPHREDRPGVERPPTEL
Kind of series: Prostaglandin synthetase (cyclooxygenase), purified beef seminal vesicle. The series is classed as biochemical. The note with it: Table IX; commercial enzyme preparation; read-out: Beef Prostaglandin Cyclooxygenase IC50.
From the text: as §3

The structures appear in SMILES notation. Structures can show the parent of a compound that is named as a salt.

T1 sequence (P18242 65-410): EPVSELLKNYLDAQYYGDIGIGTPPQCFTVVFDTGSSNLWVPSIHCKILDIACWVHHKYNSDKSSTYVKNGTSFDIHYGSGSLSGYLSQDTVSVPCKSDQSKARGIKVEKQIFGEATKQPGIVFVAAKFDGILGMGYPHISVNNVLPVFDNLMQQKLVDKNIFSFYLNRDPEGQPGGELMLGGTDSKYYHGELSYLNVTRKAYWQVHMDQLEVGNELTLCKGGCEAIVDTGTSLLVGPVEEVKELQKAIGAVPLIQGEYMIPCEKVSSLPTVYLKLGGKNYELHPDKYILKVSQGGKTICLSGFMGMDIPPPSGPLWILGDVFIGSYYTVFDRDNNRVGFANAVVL

Take `OB(O)O` [boric acid]: in [1], the “urinary excretion of calcium, magnesium and perhaps phosphorus” value was “blocks the urinary excretion of calcium, magnesium and perhaps phosphorus”. Moreover, in series [2], the effect on testes entry was “severe degeneration of the testes with giant cell formation, pyknosis and exfoliation”.

Turning to `C[N+](C)(C)[BH2-]C(=O)NO` [Compound 14, Trimethylamine-boranecarbohydroxamic acid tetraphenylborate salt.], the response vs control in vivo at 8 mg/kg in [3] is 50%. For the same molecule, the IC50 stood at 4.22 µM in series [4]; 2.14 µM in series [5]; 3.66 µM in series [6]; 1.14 mg/L in [7]; 1.37 µM in [8]; 1.61 µM in [9]. For the same molecule, the IC50 in [10] came to 1.49 µM; in [11] it was 1.21 mg/L; in series [12], 5.85 µM; in series [13], 3.96 µM; in series [15], 1.3 µM. Also, in [14], the “Anti-Inflammatory Activity Sprague Dawley Rats” value was found to be 60 % Control.

(Values after patent US5312816A, “Method of combatting osteoporosis in mammalian subjects, utilizing organic boron compounds” (priority 1993, dated 1994).)
